Data set [1] has as its system Schaffer collateral-CA1 synapses. Description: hAβ-induced impairment of LTP at Schaffer collateral-CA1 synapses in acute hippocampal slices. In kind it is cell-based, rat. As to conditions: high-frequency Schaffer collateral stimulation 30 min later. The text has this:
FIG. 5 depicts rescue of Aβ impairment of long-term potentiation (LTP) of synaptic transmission at Schaffer collateral-CA1 synapses in hippocampal slices in presence of GLYX-13. A: Time course of the effect of pressure ejection of Aβ(1-42) into stratum radiatum of field CA1 (Aβ injections; 12 psi/100 ms; filled circles; n=10) on basal synaptic transmission and LTP induced by high-frequency stimulus trains (3×100 Hz/500 ms), compared to vehicle (TFE) injection (open circles; n=8). B: Time course of the effect of pressure ejection of Aβ(1-42) into stratum radiatum of field CA1 in the presence of 1 μM Glyx-13 (Aβ injections; 12 psi/100 ms; filled circles; n=8) on basal synaptic transmission and LTP induced by high-frequency stimulus trains (3×100 Hz/500 ms), compared to vehicle (TFE) injection (open circles; n=8). C: Time course of the effect of pressure ejection of Aβ(1-42) into stratum radiatum of field CA1 in the presence of 1 μM D-cycloserine (Aβ injections; 12 psi/100 ms; filled circles; n=7) on basal synaptic transmission and LTP induced by high-frequency stimulus trains (3×100 Hz/500 ms), compared to vehicle (TFE) injection (open circles; n=8). D: Time course of the effect of pressure ejection of Aβ(1-42) into stratum radiatum of field CA1 in the presence of 100 μM D-Serine (Aβ injections; 12 psi/100 ms; filled circles; n=8) on basal synaptic transmission and LTP induced by high-frequency stimulus trains (3×100 Hz/500 ms), compared to vehicle (TFE) injection (open circles; n=8). Each point in A, B and C is mean±SEM normalized fEPSP slope.
We pressure ejected hAβ in the absence or presence of Glyx-13, D-cycloserine or the full agonist D-serine, into the Schaffer collateral synaptic field in CA1 stratum radiatum of acute in vitro rat hippocampal slices and attempted to evoke LTP 30 min later. FIG. 5A illustrates that hAβ alone caused a significant reduction (˜20%) in the magnitude of LTP elicited by high-frequency Schaffer collateral stimulation.

The next data set relates to autistic individuals. The note with it: cited from earlier work.
The subject of the next data set is HD 51 CAG and WT rats. Kind of data set: Huntington's disease model, serial operant reversal task, phase 3 pseudo-random testing. In kind it is in vivo, rat. The note with it: subcutaneously 20 minutes prior to task. On the procedure:
HD 51 CAG and WT (wild type) rats are used in a Huntington's disease model study, testing cognition with serial operant reversal tasks. Rats are dosed according to the following schedule:
The animals are first placed in an acquisition trial. The acquisition trial is an 8-hour testing period where the animal is reinforced with a sucrose food pellet for a “correct” lever press after a variable interval time of 30 seconds. This task requires the animals to learn which lever needs to be activated to gain reinforcement. The time taken to identify the “correct” lever is measured, as well as the number of reinforcers earned, percentage of “correct” lever presses, and errors made (incorrect lever presses). The acquisition trial is performed with access to water ad libidum. […]
The testing session is conducted using a progressive FR schedule for 25 or 30 days. […] The response rate for the left and right lever is recorded, as well as the total number of lever presses for each side, the total number of lever presses combined for each side in a session, the percentage of “correct” lever presses (“correct” lever presses/left lever presses+right lever presses then multiplied by 100 to obtain a percentage), the total reinforcers earned, and the time to complete each session. The rats are given one day off before the second phase of testing begins, with only the weight of the rats being recorded. […]

For a further data set, the system named is low-line rats. Description: Conspecific play induced pro-social USVs in low-line rats (autism model). In kind it is in vivo, rat. As to conditions: adolescent male low-line rats, 50 mg/kg s.c. 15 min before testing, vs vehicle, P<0.05. On the procedure: FIG. 2 depicts Mean±SEM (A) rates of conspecific play induced pro-social USVs (frequency-modulated 50 kHz calls) in adolescent male low-line rats pretreated with vehicle (1 mg/ml sterile saline s.c.) or (B) GLYX-13 (50 mg/kg s.c.) […] before the start of testing using a within-subjects design. (C) Proportion of total conspecific play induced USVs that were monotonous (i.e., bandwidth less than 7 kHz; n=9 per group. *P<0.05 Fisher PLSD post hoc test, 2 tailed.
Core symptoms of autism (1) deficits in social emotions and motivations, 2) communication problems, and 3) a high incidence of motor abnormalities, especially repetitive behaviors) can be modeled in part in animals using the following behavioral measures, respectively: (1) reduced time spent in social contact; (2) reduced rates of pro-social vocalizations, and (3) disrupted ultrasonic vocalization patterns.
The proportion of total conspecific play induced USVs that were monotonous (i.e., bandwidth less than 7 kHz) is shown in FIG. 2C. n=9 per group. *P<0.05 Fisher PLSD post hoc test, 2 tailed.

The test system of the next data set is CA1 pyramidal neurons. Description: Protection against human b-amyloid (1-42) toxicity in organotypic hippocampal slice cultures (propidium fluorescence). In kind it is cell-based. As to conditions: 5 μg/ml hAβ, 24 hr after application. From the text:
FIG. 4 depicts delayed neuronal death produced by Aβ(1-42) in organotypic hippocampal slice cultures upon application of GLYX-13; Mean±SEM propidium fluorescence 24 hr after bath application of Aβ(1-42) alone, versus Aβ(1-42) in the presence of indicated concentrations (μg/ml) of Glyx-13 (*, […], Student's t-test compared to Aβ alone).
To determine whether Glyx-13, by renormalizing activation of NMDA receptors, might protect against the toxicity of hAβ to susceptible neurons in a physiological network milieu, we compared the long-term effects of hAβ in the absence and presence of different concentrations of Glyx-13.

Residues, ends and D or L forms follow the SMILES beside them.

`N[C@H](CO)C(=O)O` [D-serine]: the “rescue of LTP after hAβ pressure ejection” value (“rescue of LTP” below) in data set [1] is reported as “nor the full agonist D-serine (100M, FIG. 5D, open circles) was able to rescue LTP”.

In the case of `Cc1nc2n(c(=O)c1CCN1CCC(c3noc4cc(F)ccc34)CC1)CCCC2` [risperidone], in the data set with autistic individuals (autism), the “hyperactivity and irritability symptoms” value is “significantly decrease”; the “inappropriate speech or social withdrawal” value is “little to no effect”; the side effects result is “significant weight gain and sedative side effects”.

With `C[C@@H](O)[C@H](N)C(=O)N1CCC[C@H]1C(=O)N1CCC[C@H]1C(=O)N[C@H](C(N)=O)[C@@H](C)O` [GLYX-13, L-threonyl-L-prolyl-L-prolyl-L-threonine amide] (H-TPPT-NH2), in the data set on HD 51 CAG and WT rats (HD animals), the “percentage of correct lever presses vs saline injections” value is “higher percentage trends of correct lever presses”. In the data set on HD 51 CAG and WT rats (WT animals), the “percentage of correct lever presses vs saline injections” value was “higher percentage trends of correct lever presses”. In addition, in data set [1] (1 μM bath-applied), the “rescue of LTP” value was “LTP was restored to normal control levels”. Further, in the data set on low-line rats, the “proportion of total USVs that are monotonous (bandwidth less than 7 kHz)” value is recorded as “significantly decreased” and the “rates of play inducing pro-social USVs (frequency-modulated 50 kHz calls)” value is reported as “significantly increased”. In addition, the “dose-response relation of neuroprotective potency” value with CA1 pyramidal neurons was “U-shaped dose-response relation”.

On to `N[C@@H]1CONC1=O` [D-cycloserine], for which the “rescue of LTP” value in data set [1] (1 μM bath-applied) was “neither the glycine site partial agonist D-cycloserine (1 μM, FIG. 5C, open circles) nor the full agonist D-serine (100M, FIG. 5D, open circles) was able to rescue LTP”. The social withdrawal entry in the data set with autistic individuals (autistic individuals (Posey et al., 2004)) is listed as “significantly improved”.
